Experimental data: article PMC8213057, “Targeting ALK2: An Open Science Approach to Developing Therapeutics for the Treatment of Diffuse Intrinsic Pontine Glioma” (Journal of Medicinal Chemistry, 2020)

How the values were obtained:
LOK/STK10 = LOK/STK10 (Homo sapiens, UniProt O94804); assay: biochemical; conditions: read-out: % enzyme activity, 1 μM; Run 1, Run 2
PAK3 = PAK3 (Homo sapiens, UniProt O75914); assay: biochemical; conditions: read-out: % enzyme activity, 1 μM; Run 1, Run 2
EPHA2 = EPHA2 (Homo sapiens, UniProt P29317); assay: biochemical; conditions: read-out: % enzyme activity, 1 μM; Run 1, Run 2
CAMK2d = CAMK2d (Homo sapiens, UniProt Q13557); conditions: 1 μM; Run 1, Run 2
SSTK/TSSK6 = SSTK/TSSK6 (Homo sapiens, UniProt Q9BXA6); conditions: 1 μM; Run 1, Run 2
Sequence of SSTK/TSSK6 (Q9BXA6 whole entry): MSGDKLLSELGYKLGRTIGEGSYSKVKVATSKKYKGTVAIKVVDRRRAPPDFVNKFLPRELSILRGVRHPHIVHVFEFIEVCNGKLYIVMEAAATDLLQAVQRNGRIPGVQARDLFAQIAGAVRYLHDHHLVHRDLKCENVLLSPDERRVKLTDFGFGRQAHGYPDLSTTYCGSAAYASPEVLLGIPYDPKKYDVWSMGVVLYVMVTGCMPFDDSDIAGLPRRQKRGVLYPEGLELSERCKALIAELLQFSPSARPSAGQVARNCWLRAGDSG

JAK1 = JAK1 (Homo sapiens, UniProt P23458); conditions: 1 μM; Run 1, Run 2
Sequence of JAK1 (P23458 whole entry): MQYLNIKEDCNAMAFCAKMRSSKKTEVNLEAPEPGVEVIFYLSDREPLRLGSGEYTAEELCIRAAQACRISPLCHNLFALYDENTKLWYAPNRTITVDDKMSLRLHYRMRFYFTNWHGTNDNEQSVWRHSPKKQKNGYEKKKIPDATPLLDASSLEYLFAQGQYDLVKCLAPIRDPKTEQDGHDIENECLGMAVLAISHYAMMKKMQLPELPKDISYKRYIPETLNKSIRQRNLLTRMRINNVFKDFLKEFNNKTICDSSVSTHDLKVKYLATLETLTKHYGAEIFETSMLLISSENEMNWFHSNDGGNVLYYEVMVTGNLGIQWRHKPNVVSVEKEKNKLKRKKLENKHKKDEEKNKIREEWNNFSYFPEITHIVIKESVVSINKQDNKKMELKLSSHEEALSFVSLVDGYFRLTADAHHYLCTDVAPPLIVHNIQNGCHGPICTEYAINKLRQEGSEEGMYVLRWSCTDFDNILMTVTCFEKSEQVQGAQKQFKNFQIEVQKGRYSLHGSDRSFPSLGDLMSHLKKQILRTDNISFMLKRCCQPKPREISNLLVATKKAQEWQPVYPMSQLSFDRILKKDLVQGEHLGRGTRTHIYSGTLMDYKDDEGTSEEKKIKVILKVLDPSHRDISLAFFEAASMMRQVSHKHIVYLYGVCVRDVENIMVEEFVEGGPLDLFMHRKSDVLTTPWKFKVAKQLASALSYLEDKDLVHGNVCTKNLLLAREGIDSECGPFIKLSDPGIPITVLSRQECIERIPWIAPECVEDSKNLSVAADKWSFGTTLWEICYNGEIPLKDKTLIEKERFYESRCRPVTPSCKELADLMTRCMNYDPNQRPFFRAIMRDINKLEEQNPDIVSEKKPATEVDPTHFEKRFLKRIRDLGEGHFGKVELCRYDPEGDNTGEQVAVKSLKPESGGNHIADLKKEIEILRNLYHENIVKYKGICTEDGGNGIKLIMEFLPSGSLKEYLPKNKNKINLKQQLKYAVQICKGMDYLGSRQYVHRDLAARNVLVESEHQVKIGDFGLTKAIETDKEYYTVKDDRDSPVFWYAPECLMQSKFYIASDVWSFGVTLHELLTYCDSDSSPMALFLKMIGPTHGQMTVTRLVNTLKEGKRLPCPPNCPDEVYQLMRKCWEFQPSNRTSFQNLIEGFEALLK

EPHA5 = EPHA5 (Homo sapiens, UniProt P54756); conditions: 1 μM; Run 1, Run 2
KHS/MAP4K5 = target: T1, KHS/MAP4K5 (Homo sapiens, UniProt Q9Y4K4); assay: 375-member kinase panel; assay type: biochemical; conditions: Run 1, Run 2; for % enzyme activity: 1 μM; for remaining activity at 1 µM: read-out: % enzyme activity, 1 μM
T1 construct: purchased Reaction Biology Corporation
T1 sequence (Q9Y4K4 whole entry): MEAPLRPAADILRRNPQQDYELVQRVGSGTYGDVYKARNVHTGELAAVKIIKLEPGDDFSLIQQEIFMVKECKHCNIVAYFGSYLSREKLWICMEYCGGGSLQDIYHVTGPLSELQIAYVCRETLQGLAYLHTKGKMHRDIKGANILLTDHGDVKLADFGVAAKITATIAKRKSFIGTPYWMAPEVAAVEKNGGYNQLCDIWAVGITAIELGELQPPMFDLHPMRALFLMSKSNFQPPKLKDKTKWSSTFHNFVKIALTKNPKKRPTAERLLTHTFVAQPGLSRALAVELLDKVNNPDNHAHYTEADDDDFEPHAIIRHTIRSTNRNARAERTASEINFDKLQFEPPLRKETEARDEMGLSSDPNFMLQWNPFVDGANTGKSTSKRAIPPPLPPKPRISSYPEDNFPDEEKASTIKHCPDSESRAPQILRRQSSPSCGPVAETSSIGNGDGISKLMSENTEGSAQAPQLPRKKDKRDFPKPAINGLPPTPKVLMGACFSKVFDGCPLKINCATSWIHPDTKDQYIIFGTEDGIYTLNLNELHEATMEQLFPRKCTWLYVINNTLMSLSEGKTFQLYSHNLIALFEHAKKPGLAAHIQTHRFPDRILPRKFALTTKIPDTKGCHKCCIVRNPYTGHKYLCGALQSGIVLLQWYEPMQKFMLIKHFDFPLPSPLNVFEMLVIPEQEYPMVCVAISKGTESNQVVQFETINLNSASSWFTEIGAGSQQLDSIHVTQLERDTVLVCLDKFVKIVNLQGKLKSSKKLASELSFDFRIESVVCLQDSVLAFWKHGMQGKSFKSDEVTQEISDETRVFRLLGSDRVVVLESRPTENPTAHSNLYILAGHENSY

PKAcb = PKAcb (Homo sapiens, UniProt P22694); assay: biochemical; conditions: read-out: % enzyme activity, 1 μM; Run 1, Run 2
BLK = BLK (Homo sapiens, UniProt P51451); assay: biochemical; conditions: read-out: % enzyme activity, 1 μM; Run 1, Run 2
Sequence of BLK (P51451 whole entry): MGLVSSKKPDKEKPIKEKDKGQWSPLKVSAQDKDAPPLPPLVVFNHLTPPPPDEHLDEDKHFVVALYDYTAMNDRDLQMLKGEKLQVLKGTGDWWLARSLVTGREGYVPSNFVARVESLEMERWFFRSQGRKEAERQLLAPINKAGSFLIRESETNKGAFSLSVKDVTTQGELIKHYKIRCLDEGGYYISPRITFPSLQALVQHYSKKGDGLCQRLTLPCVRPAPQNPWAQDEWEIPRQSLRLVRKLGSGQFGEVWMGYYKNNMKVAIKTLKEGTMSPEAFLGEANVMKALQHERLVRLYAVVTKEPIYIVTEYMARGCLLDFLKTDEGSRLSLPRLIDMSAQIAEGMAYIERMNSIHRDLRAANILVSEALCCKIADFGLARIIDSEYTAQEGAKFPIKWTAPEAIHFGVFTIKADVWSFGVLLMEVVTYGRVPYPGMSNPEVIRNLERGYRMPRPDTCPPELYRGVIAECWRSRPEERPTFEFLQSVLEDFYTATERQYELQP

PKG2/PRKG2 = target: T2, PKG2/PRKG2 (Homo sapiens, UniProt Q13237); conditions: 1 μM; Run 1, Run 2
T2 sequence (Q13237 1-762): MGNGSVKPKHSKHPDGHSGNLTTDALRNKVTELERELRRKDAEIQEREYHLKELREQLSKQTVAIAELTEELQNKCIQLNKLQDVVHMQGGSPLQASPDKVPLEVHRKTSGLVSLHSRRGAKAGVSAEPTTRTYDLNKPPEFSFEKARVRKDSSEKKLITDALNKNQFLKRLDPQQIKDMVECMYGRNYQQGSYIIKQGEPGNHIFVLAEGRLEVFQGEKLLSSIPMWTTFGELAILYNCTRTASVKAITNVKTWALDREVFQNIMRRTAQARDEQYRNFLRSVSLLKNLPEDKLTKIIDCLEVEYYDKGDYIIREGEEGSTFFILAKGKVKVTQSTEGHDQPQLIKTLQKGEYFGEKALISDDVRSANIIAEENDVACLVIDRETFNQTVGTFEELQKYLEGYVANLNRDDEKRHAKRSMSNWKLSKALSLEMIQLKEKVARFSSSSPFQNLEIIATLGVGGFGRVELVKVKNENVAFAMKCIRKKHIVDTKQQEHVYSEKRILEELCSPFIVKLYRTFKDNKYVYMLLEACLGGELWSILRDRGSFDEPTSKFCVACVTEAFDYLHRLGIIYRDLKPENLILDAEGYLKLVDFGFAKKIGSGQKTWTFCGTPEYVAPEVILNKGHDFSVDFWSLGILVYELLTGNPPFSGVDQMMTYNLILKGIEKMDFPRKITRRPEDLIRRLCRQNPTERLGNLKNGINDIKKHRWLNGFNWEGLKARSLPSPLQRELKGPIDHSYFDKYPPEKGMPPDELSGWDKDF

RSK3 = RSK3 (Homo sapiens, UniProt Q15349); conditions: 1 μM; Run 1, Run 2
Sequence of RSK3 (Q15349 whole entry): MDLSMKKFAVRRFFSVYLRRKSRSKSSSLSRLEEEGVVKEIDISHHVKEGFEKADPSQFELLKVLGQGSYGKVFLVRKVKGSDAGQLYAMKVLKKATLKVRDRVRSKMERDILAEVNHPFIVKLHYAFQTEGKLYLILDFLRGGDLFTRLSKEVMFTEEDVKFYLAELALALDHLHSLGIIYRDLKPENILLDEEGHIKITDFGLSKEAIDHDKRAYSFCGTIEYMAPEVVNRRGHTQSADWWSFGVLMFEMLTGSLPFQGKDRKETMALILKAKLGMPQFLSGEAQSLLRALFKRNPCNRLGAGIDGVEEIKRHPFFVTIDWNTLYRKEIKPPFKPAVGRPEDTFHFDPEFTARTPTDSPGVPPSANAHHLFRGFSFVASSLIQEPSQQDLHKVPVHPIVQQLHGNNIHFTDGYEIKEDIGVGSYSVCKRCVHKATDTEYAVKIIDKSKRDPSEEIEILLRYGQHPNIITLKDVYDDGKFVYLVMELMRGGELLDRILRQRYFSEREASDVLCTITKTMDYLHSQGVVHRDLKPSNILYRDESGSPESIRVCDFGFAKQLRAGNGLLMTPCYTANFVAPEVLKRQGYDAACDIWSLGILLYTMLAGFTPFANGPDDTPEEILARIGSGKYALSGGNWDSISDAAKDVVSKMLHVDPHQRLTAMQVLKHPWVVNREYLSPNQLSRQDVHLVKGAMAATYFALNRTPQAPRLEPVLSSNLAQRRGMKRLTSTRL

TAOK1 = target: T3, TAOK1 (Homo sapiens, UniProt Q7L7X3); assay: 375-member kinase panel; assay type: biochemical; conditions: Run 1, Run 2; for % enzyme activity: 1 μM; for remaining activity at 1 µM: read-out: % enzyme activity, 1 μM
T3 construct: purchased Reaction Biology Corporation
T3 sequence (Q7L7X3 1-1001): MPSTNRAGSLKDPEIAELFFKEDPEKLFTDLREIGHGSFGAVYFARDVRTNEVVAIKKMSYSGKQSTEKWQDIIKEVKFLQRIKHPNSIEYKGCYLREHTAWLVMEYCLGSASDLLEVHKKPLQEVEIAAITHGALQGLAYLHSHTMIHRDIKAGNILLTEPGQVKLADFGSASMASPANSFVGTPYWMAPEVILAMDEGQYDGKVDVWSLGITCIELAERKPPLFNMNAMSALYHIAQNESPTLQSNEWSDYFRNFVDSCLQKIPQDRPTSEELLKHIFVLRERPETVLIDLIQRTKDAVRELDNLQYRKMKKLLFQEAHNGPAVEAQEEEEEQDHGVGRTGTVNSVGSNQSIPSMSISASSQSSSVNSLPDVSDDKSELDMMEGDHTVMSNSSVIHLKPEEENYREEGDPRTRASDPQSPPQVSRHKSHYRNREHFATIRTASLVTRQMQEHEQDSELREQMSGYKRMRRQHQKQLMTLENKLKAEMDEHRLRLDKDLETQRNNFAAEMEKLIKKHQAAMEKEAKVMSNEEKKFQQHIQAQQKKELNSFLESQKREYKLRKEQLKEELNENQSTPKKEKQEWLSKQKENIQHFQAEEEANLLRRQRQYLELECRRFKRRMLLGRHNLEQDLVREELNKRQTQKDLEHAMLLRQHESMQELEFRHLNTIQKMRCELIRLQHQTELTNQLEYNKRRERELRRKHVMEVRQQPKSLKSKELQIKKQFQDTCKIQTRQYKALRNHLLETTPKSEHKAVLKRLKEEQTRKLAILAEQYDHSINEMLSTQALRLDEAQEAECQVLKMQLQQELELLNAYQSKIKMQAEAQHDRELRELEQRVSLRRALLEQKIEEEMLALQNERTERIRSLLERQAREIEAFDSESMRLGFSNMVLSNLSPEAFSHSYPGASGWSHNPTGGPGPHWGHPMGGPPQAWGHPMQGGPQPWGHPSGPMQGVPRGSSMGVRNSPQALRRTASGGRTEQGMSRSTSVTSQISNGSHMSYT

LYN = LYN (Homo sapiens, UniProt P07948); conditions: 1 μM; Run 1, Run 2
DYRK1/DYRK1A = DYRK1/DYRK1A (Homo sapiens, UniProt Q13627); conditions: 1 μM; Run 1, Run 2
TRKB = TRKB (Homo sapiens, UniProt Q16620); assay: biochemical; conditions: read-out: % enzyme activity, 1 μM; Run 1, Run 2
Sequence of TRKB (Q16620 32-822): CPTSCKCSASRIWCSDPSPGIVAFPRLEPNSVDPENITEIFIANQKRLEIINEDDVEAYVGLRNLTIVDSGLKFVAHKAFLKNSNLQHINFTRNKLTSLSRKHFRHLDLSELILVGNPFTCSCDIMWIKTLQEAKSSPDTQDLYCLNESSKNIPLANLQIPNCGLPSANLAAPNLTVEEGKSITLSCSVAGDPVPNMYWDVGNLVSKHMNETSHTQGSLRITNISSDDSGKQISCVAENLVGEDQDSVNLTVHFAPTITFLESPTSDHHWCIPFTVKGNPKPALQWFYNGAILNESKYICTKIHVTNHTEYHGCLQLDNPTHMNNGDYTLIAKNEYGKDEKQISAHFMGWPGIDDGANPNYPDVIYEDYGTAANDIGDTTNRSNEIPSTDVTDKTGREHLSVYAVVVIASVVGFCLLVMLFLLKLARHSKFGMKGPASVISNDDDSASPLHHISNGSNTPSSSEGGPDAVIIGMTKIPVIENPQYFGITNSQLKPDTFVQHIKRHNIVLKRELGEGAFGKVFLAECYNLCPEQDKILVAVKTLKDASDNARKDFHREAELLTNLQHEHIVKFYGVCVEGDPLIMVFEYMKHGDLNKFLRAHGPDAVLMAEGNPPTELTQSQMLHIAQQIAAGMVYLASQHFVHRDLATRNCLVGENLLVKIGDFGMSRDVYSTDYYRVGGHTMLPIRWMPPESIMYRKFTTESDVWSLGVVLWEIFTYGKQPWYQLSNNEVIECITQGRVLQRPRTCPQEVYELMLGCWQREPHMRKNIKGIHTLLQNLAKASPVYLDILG

CDK2/cyclin O = CDK2/cyclin O (Homo sapiens, UniProt P24941); assay: biochemical; conditions: read-out: % enzyme activity, 1 μM; Run 1, Run 2
HCK = HCK (Homo sapiens, UniProt P08631); assay: biochemical; conditions: read-out: % enzyme activity, 1 μM; Run 1, Run 2
FGFR1 = FGFR1 (Homo sapiens, UniProt P11362); assay: biochemical; conditions: read-out: % enzyme activity, 1 μM; Run 1, Run 2

Sequence of PAK3 (O75914 whole entry): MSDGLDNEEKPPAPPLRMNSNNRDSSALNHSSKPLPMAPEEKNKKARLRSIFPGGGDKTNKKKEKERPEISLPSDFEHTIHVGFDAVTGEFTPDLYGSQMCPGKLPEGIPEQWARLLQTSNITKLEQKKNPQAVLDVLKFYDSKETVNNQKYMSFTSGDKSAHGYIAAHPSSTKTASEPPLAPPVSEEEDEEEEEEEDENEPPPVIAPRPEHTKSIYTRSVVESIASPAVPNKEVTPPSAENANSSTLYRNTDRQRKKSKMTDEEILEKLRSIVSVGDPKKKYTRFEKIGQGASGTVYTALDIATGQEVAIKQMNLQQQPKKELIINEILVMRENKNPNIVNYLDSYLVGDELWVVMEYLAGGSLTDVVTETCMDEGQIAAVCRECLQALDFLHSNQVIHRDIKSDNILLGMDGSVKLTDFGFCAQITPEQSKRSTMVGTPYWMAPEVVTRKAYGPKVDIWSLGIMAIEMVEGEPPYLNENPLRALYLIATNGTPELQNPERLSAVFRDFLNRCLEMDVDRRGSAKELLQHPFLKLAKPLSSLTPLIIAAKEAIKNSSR

SMILES | remaining activity at 1 µM (LOK/STK10) [%] | remaining activity at 1 µM (PAK3) [%] | remaining activity at 1 µM (EPHA2) [%] | % enzyme activity (CAMK2d) [%] | % enzyme activity (SSTK/TSSK6) [%] | % enzyme activity (JAK1) [%] | % enzyme activity (EPHA5) [%] | % enzyme activity (KHS/MAP4K5) [%] | remaining activity at 1 µM (KHS/MAP4K5) [%] | remaining activity at 1 µM (PKAcb) [%] | remaining activity at 1 µM (BLK) [%] | % enzyme activity (PKG2/PRKG2) [%] | % enzyme activity (RSK3) [%] | % enzyme activity (TAOK1) [%] | remaining activity at 1 µM (TAOK1) [%] | % enzyme activity (LYN) [%] | % enzyme activity (DYRK1/DYRK1A) [%] | remaining activity at 1 µM (TRKB) [%] | remaining activity at 1 µM (CDK2/cyclin O) [%] | remaining activity at 1 µM (HCK) [%] | other results
COc1cc(-c2cncc(-c3ccc(N4C[C@@H](C)N(C)[C@@H](C)C4)cc3)c2C)cc(F)c1C(N)=O [Compound 26c, 2-Fluoro-6-methoxy-4-(4-methyl-5-(4-((3R,5S)-3,4,5-trimethylpiperazin-1-yl)phenyl)pyridin-3-yl)benzamide] | 68.7 | 125 | 108 | 95.15 | 98.04 | 99.07 | 90.66 | 40.60 | 41.7 | 97.9 | 104 | 97.08 | 99.74 | 60.59 | 62.2 | 88.67 | 60.05 | 99 | 92.7 | 91.8 | remaining activity at 1 µM (FGFR1): 101%
COc1cc(-c2cncc(-c3ccc(N4CCN(C)CC4)cc3)c2C)cc(F)c1C(N)=O [Compound 26a, 2-Fluoro-6-methoxy-4-(4-methyl-5-(4-(4-methylpiperazin-1-yl)phenyl)pyridin-3-yl)benzamide] | 51.8 | 89.5 | 103 | 94.73 | 107.86 | 99.53 | 90.37 | 39.28 | 39.7 | 96.2 | 97.2 | 97.48 | 87.93 | 60.19 | 60.3 | 79.23 | 43.07 | 100 | 95.1 | 93.6 | remaining activity at 1 µM (FGFR1): 97.4%
